In PubChem BioAssay AID743030 (The Scripps Research Institute Molecular Screening Center, 2013):

Tests used:
Test in all cases: fraction bound to plasma proteins and brain, late-stage follow-up, ADME assay for V1a-R antagonist project, biochemical, LC-MS, human, mouse, rat plasma, rat brain (AID 743030)
Conditions in all cases: equilibrium dialysis, plasma/brain binding, 16 h, at 2.5 µM
Human plasma proteins = system: Human plasma proteins
Mouse plasma proteins = system: Mouse plasma proteins
Rat brain tissue = system: Rat brain tissue
Rat plasma proteins = system: Rat plasma proteins

fraction bound (Human plasma proteins): 99.4%
fraction bound (Mouse plasma proteins): 97.7%
fraction bound (Rat brain tissue): > 99.5%
fraction bound (Rat plasma proteins): 99.5%
SMILES: O=C(C1CCN(c2ccc(Cl)cn2)CC1)N(CC1CC1)c1ccc(Cl)cc1
